Active and inactive are the calls of the source. No cut-off for these calls is given here.

The values that follow come from ChEMBL document CHEMBL4052726, “Design, synthesis, and biological evaluation of aryl N-methoxyamide derivatives as GPR119 agonists” (Bioorg Med Chem Lett, 2017).

Experiment [1] addresses T1, Glucose-dependent insulinotropic receptor (Homo sapiens) (UniProt Q8TDV5).
T1 sequence (whole entry): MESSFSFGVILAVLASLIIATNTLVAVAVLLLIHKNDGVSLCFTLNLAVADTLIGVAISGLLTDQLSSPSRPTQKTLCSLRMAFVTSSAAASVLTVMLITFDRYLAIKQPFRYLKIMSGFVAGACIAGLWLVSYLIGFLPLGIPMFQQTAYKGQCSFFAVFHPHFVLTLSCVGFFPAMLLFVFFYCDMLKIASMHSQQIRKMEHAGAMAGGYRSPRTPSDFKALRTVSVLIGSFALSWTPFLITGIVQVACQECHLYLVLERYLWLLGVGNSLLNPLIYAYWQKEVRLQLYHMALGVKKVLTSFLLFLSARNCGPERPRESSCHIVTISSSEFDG
Put plainly: Activation of human GPR119 expressed in CHOK1 cells harboring CRE-luciferase at 1 uM after 6 hrs by luciferase reporter gene assay relative to GSK1292263. In kind it is functional, cell-based. A general note: Reporter assays use an easily measured gene product as a stand-in for the process of interest.

Experiment [2] deals with T2, Glucose-dependent insulinotropic receptor (Homo sapiens, UniProt Q8TDV5).
T2 sequence (Q8TDV5 whole entry): T1 sequence (whole entry)
Put plainly: Agonist activity at human GPR119 expressed in CHOK1 cells harboring CRE-luciferase after 6 hrs by luciferase reporter gene assay. In kind it is functional, cell-based.

A further experiment concerns Mus musculus. As to the kind of experiment: Decrease in plasma glucose AUC in C57BL/6 mouse at 30 to 50 mg/kg administered orally followed by glucose challenge after 30 mins by OGTT. In kind it is functional, organism-based.
Experiment [3] concerns the target T1, Glucose-dependent insulinotropic receptor (Homo sapiens). As to the kind of experiment: Agonist activity at GPR119 in human NCI-H716 cells assessed as increase in forskolin-induced GLP-1 secretion by ELISA. It counts as cell-based. A general note: An ELISA detects its analyte on a solid surface through an enzyme-linked reagent.

Usually EC50 stands for the concentration needed to bring the measured effect to its halfway point. High values mean a need for much substance, low ones an effect from little substance. In experiment [1], `CC(C)(C)OC(=O)N1CCC(COc2ccc(-c3ccc(C(=O)N4CCCCO4)cc3)nc2)CC1` had an Activity of 73%. This compound had an EC50 in experiment [2] of 321 nM.

Regarding `CON(C)C(=O)c1ccc(-c2csc3c(OC4CCN(C(=O)OC(C)(C)C)CC4)ncnc23)cc1F`, in experiment [1], the Activity came out at 88%. This compound also had an EC50 in experiment [2] of 57 nM. `CCc1cnc(N2CCC(N(C)c3ncnc4c(-c5ccc(C(=O)NOCc6ccccc6)cc5)csc34)CC2)nc1` returned an Activity in experiment [1] of 41%.

With `CCc1cnc(N2CCC(COc3ccc(-c4ccc(C(=O)N(C)OC)cc4)nc3)CC2)nc1`, in experiment [1], the Activity turned out to be 95%. The compound further displayed an EC50 in experiment [2] of 319 nM. On the same counts, the results for `CON(C)C(=O)c1ccc(-c2ccc(OCC3CCN(C(=O)OC(C)(C)C)CC3)cn2)cc1F` are 114% and 73 nM. In turn, `CC(C)(C)OC(=O)N1CCC(COc2ccc(-c3ccc(C(=O)NOCc4ccccc4)cc3)nc2)CC1` registered an Activity in experiment [1] of 69%. In experiment [1], `CON(C)C(=O)c1ccc(-c2csc3c(N(C)C4CCN(C(=O)OC(C)(C)C)CC4)ncnc23)cc1` registered an Activity of 105%. The midpoint of the response in experiment [2], the EC50, lay at 98 nM. In experiment [1], `CON(C)C(=O)c1ccc(-c2csc3c(N(C)C4CCN(C(=O)OC(C)C)CC4)ncnc23)cc1F` had an Activity of 90%. This compound also displayed an EC50 in experiment [2] of 67 nM.

`CON(C)C(=O)c1ccc(-c2csc3c(OC4CCN(C(=O)OC(C)(C)C)CC4)ncnc23)cc1` returned an Activity in experiment [1] of 100%. This compound also came in with an EC50 in experiment [2] of 64 nM. The corresponding values for `CCc1cnc(N2CCC(Oc3ncnc4c(-c5ccc(C(=O)N(C)OC)cc5)csc34)CC2)nc1` are 82% and 199 nM. Regarding `CC(C)OC(=O)N1CCC(N(C)c2ncnc3c(-c4ccc(C(=O)NOCc5ccccc5)cc4)csc23)CC1`, the Activity in experiment [1] was 53%. In experiment [1], `CCc1cnc(N2CCC(N(C)c3ncnc4c(-c5ccc(C(=O)N(C)OC)cc5)csc34)CC2)nc1` displayed an Activity of 80%. Turning to `CON(C)C(=O)c1ccc(-c2ccc(OCC3CCN(C(=O)OC(C)C)CC3)cn2)cc1F`, the Activity in experiment [1] was 96%. Moreover, the EC50 in experiment [2] was 92 nM. On the same counts, the results for `CCc1cnc(N2CCC(Oc3ncnc4c(-c5ccc(C(=O)N(C)OC)c(F)c5)csc34)CC2)nc1` are 100% and 105 nM.

Compound `CONC(=O)c1ccc(-c2csc3c(N(C)C4CCN(C(=O)OC(C)(C)C)CC4)ncnc23)cc1` showed an Activity in experiment [1] of 82%. For `CCc1cnc(N2CCC(COc3ccc(-c4ccc(C(=O)N(C)OC)c(F)c4)nc3)CC2)nc1`, the Activity in experiment [1] came out at 100%. In experiment [2], this compound returned an EC50 of 77 nM. Also, the result (in the experiment on Mus musculus; in experiment [3]) was Active.

With `CON(C)C(=O)c1ccc(-c2csc3c(N(C)C4CCN(C(=O)OC(C)(C)C)CC4)ncnc23)cc1F`, in experiment [1], the Activity stood at 87%. In experiment [2], this compound gave an EC50 of 53 nM. The corresponding values for `CON(C)C(=O)c1ccc(-c2csc3c(N(C)C4CCN(C(=O)OC(C)C)CC4)ncnc23)cc1` are 82% and 156 nM. With `CN(c1ncnc2c(-c3ccc(C(=O)NOCc4ccccc4)cc3)csc12)C1CCN(C(=O)OC(C)(C)C)CC1`, the Activity in experiment [1] came to 81%. The compound also had an EC50 in experiment [2] of 83 nM. The corresponding values for `CON(C)C(=O)c1ccc(-c2ccc(OCC3CCN(C(=O)OC(C)(C)C)CC3)cn2)cc1` are 106% and 171 nM.

In experiment [1], `CN(c1ncnc2c(-c3ccc(C(=O)N4CCCCO4)cc3)csc12)C1CCN(C(=O)OC(C)(C)C)CC1` registered an Activity of 66%. In experiment [1], `CCONC(=O)c1ccc(-c2csc3c(N(C)C4CCN(C(=O)OC(C)(C)C)CC4)ncnc23)cc1` had an Activity of 73%.

`CON(C)C(=O)c1ccc(-c2ccc(OCC3CCN(C(=O)OC(C)C)CC3)cn2)cc1` registered an Activity in experiment [1] of 80%. Moreover, the EC50 in experiment [2] was 155 nM.

`CCc1cnc(N2CCC(N(C)c3ncnc4c(-c5ccc(C(=O)N(C)OC)c(F)c5)csc34)CC2)nc1` registered an Activity in experiment [1] of 81%.
